# Test results taken from patent US20060217340A1, “Methods and products for treating hypertension by modulation of TRPC3 channel activity” (University of Vermont and State Agricultural College, priority 2005, published 2006).
# “Also recorded” adds a separate entry of the source.
# Tests used:
# Type in all cases: cell-based, rat
# [1] = tested on: TRPC3; experiment: Western analysis of TRPC3 protein expression in arteries
# Procedure: Western Analysis. Arterial segments were homogenized in lysis buffer (5 minutes, 4° C.) containing (in mM): 40 CAPS, 1 DL-Dithiothreitol (DTT), 10 EDTA, 15 MgCl2, 115 NaCl, 1 NaOrthovanadate, 1 NaF, 2.5 Urea, and 0.25% deoxychlorate, 10% glycerol, 1% NP-40, 0.2% SDS, and 1:50 mammalian protease inhibitor cocktail (Sigma, St. Louis, Mo., USA). Equal amounts of sample protein were separated on a 10% polyacrylamide gel and transferred to a nitrocellulose membrane. The membranes were exposed to a TRPC3 or TRPC6 polyclonal antibody (anti-rabbit 1:200 dilution, Alomone Labs, Jerusalem, Israel) and a […] (GAPDH) monoclonal antibody (anti-mouse, 1:1000 dilution, Chemicon Labs, Temecula, Calif., USA). Alexa-Fluor 680® goat anti-rabbit (Molecular Probes, Eugene, Oreg., USA) and IRDyeTM800 anti-mouse (Rockland Immunochemicals, Gilbertsville, Pa., USA) were used to fluorescently label the TRPC3 and GAPDH antibodies respectively. The density of signals specific for the TRPC3 and GAPDH bands in a given lane on a membrane were measured after scanning the membrane with an Odyssey® infared imaging system (Li-COR Biosciences, Lincoln, Nebr., USA). Quantified amounts were normalized to a total protein amount lane on the polyacrylamide gel.
# Oligodeoxynucleotide Sequences and Reverse Permeabilization. TRPC6 sense and antisense oligodeoxynucleotides (ODN's) were designed as previously described (Welsh et al 2002 Circ Res 90, 248-250) and were as follows: sense, 5′-[…]-3′ (SEQ ID: 3) and 5′-GCACACGCAGCCTCTTCAC-3′ (SEQ ID: 4) antisense, 5′-[…]-3′ (SEQ ID: 5) and 5′-[…]-3′ (SEQ ID: 6). TRPC3 sense and antisense ODN's were designed based on the rat TRPC3 gene (Ohki et al 2000 J Biol Chem 275: 39055-39060) and are as follows: sense, 5′-[…]-3′ (SEQ ID: 7) and 5′-[…]-3′ (SEQ ID: 8); anti-sense, 5′-[…]-3′ (SEQ ID: 9) and 5′-[…]-3′ (SEQ ID: 10). The last five bases on the 5′ and 3′ end were phosphorothioated in order to limit ODN degradation. […]
# [2] = tested on: cerebral artery SMCs; experiment: Membrane potential recordings in pressurized cerebral arteries; conditions: for resting membrane potential (Vm): before UTP; for pressure-induced depolarization of arterial SMCs: intravascular pressure increased from 20 to 80 mm Hg
# Text: Oligodeoxynucleotide Sequences and Reverse Permeabilization. TRPC6 sense and antisense oligodeoxynucleotides (ODN's) were designed as previously described (Welsh et al 2002 Circ Res 90, 248-250) and were as follows: sense, 5′-[…]-3′ (SEQ ID: 3) and 5′-GCACACGCAGCCTCTTCAC-3′ (SEQ ID: 4) antisense, 5′-[…]-3′ (SEQ ID: 5) and 5′-[…]-3′ (SEQ ID: 6). TRPC3 sense and antisense ODN's were designed based on the rat TRPC3 gene (Ohki et al 2000 J Biol Chem 275: 39055-39060) and are as follows: sense, 5′-[…]-3′ (SEQ ID: 7) and 5′-[…]-3′ (SEQ ID: 8); anti-sense, 5′-[…]-3′ (SEQ ID: 9) and 5′-[…]-3′ (SEQ ID: 10). The last five bases on the 5′ and 3′ end were phosphorothioated in order to limit ODN degradation. For some experiments fluoroscein-isothiocyanate was conjugated to the 5′ end to allow for histological assessment of cellular uptake of the ODNs. All ODNs were synthesized and HPLC purified commercially by Qiagen (Alameda, Calif., USA). Sense and antisense ODN's (2 μM) were introduced into the arterial SMs using a reversible permeabilization procedure (Lesh et al 1995 Circ Res 77,220-230)). The arterial segments were then organ cultured for 3 days in D-MEM/F-12 culture media with L-glutamine (2 mM), penicillin (50 units/ml) and streptomycin (50 μg/ml) prior to use.
# Diameter and membrane potential recordings. Endothelial cell denuded artery segments were mounted on glass pipettes in an arteriograph chamber (Living Systems, Burlington, Vt., USA), pressurized to 20 mmHg (with no flow), and superfused with warm (37° C.), gassed (95% 02/5% CO2) physiological saline solution (PSS) containing (in mM): 119 NaCl, 4.7 KCl, 24 NaHCO3, 0.2 KH2PO4, […], 1.2 MgSO4, 1.6 CaCl2, and 10.6 glucose, pH 7.4. In experiments using Ca^2+-free PSS, CaCl2 was omitted and 3 mM EGTA and 30 μM diltiazem added. In experiments with diacylglycerol induction, 300 μM of the diacylglycerol analogue OAG (1-oleyol-2-acetyl-sn-glycerol) was added. The endothelium was removed as previously described (Sun et al 1993 Endothelium 1, 115-122). To verify endothelial cell removal the arteries were pressurized to 60 mmHg and allowed to develop myogenic tone prior to exposing the vessels to 1 μM UTP. Absence of a dilation or biphasic constrictor response to 1 μM UTP indicated successful endothelial cell removal (Marelli 2001 Am J Physiol Heart Cir Physiol 281, H1759-H1766; Miyagi et al 1996 Br J Pharmacol 118, 847-856). Arterial diameter or membrane potential (Vm) of sense and anti-sense treated arteries was measured in the absence (control) or presence of UTP (concentration range: 0.1 to 10 μM). Membrane potential was measured by inserting a sharp glass electrode (≈100 MΩ resistance) containing 0.5M KCl into the vessel wall. The criteria for successful vascular smooth muscle cell impalement were: (1) a sharp negative Vm deflection on entry; (2) a stable potential for at least 1 minute after entry; and (3) a sharp positive Vm deflection upon removal. Measurements were made using an electrometer (World Precision Instruments) and the data were recorded via computer using Axotape and Dataq software. Arterial diameter was measured using a video dimension analyzer (IonOptix Corporation; Milton, Mass.).
# [3] = tested on: smooth muscle cells isolated from sense- or antisense-treated cerebral arteries; experiment: Perforated patch clamp, UTP-activated whole-cell current; conditions: 30 μM UTP
# Procedure: Patch clamp electrophysiology. Single smooth muscle cells were enzymatically isolated from sense- or antisense-treated cerebral arteries using an isolation solution of the following composition (in mM): 60 NaCl, 58 sodium glutamate, 5.6 KCl, 2 MgCl2, 10 glucose, 0.1 CaCl2, 10 HEPES (pH 7.4) with 0.5 mg/ml papain, and 1 mg/ml dithioerythritol added. After 10 minutes, arterial segments were placed in a second isolation solution containing 0.1 mM CaCl2 and a collagenase type F and hyaluronidase mixture (1 mg/ml each). Trituration was performed with a polished wide-bore pipette and the cells were stored on ice and used the same day. Whole cell ionic currents were measured using the perforated patch method in the presence or absence of 30 μM UTP. Recording electrodes (4-7 MΩ resistance) were pulled from borosilicate glass. Plated cells were voltage clamped and held at −60 mV for 15 minutes prior to experimentation; whole cell currents were monitored while voltage was slowly ramped (−120 to +20 mV, 0.167 mV/ms); currents were not leak subtracted. The bath solution contained (in mM): 120 NaCl, 1.2 MgCl2, 1.8 CaCl2, 10 HEPES (pH 7.4), and 10 glucose. The pipette solution contained (in mM): 120 CsCl, 3 MgCl2, 0.1 EGTA, 10 HEPES (pH 7.2), 10 glucose and 200 μg/ml amphotericin B. A series resistance of approximately 40 MΩ was accepted for all perforated patch clamp experiments. Membrane currents were filtered at 1 kHz, digitized at 5 kHz and stored in a personal computer system for subsequent analysis. pClamp 8.1 and Clampfit 8.1 (Axon Instruments) were used to record and analyze membrane currents. Cell capacitance was measured with the cancellation circuitry of the voltage-clamp amplifier (Axopatch 200A amplifier, Axon Instruments, Sunnyvale, Calif., USA). All current recordings were performed at room temperature (22° C.).
substance,measurement,setting,value
"5′-GAGAACCATGAACTGGAATA-3′ (SEQ ID: 9) and 5′-ACGACCAACACGACCAGACA-3′ (SEQ ID: 10) (phosphorothioate ends, further chemistry not given here) [TRPC3 antisense, antisense ODNs based on the rat TRPC3 gene; last five bases on the 5′ and 3′ end phosphorothioated]",TRPC3 expression reduced (Western blots of arterial lysates),[1]; TRPC3 antisense compared with sense treated arteries,~60%
same,TRPC3 to GAPDH ratio less in antisense compared to sense treated samples,"[1]; after 3 days of organ culture, n=4 each",42.5±11.4%
same,UTP-induced depolarization of SMCs versus sense-treated arteries,[2]; all UTP concentrations tested,significantly less; also recorded: significantly reduced
same,resting membrane potential (Vm),[2],−49±2 mV
same,pressure-induced depolarization of arterial SMCs,[2],14±1 mV
same,SMCs in which the response to UTP was absent,[3],3 of 5
same,SMCs in which the response to UTP was greatly suppressed,[3],2 of 5
"5′-TATTCCAGTTCATGGTTCTC-3′ (SEQ ID: 7) and 5′-TGTCTGGTCGTGTTGGTCGT-3′ (SEQ ID: 8) (phosphorothioate ends, further chemistry not given here) [TRPC3 sense, sense control ODNs based on the rat TRPC3 gene; end bases phosphorothioated]",resting membrane potential (Vm),[2],−50±1 mV
same,pressure-induced depolarization of arterial SMCs,[2],14±1 mV
same,cells with UTP-activated whole cell current,[3]; voltage ramps −120 mV to 20 mV,8 of 9
